{"source": "paper PMC6941654", "about": "“Glucosyltransferase CsUGT78A14 Regulates Flavonols Accumulation and Reactive Oxygen Species Scavenging in Response to Cold Stress in Camellia sinensis” (Frontiers in Plant Science, 2019)", "molecular_target": "T1, CsUGT78A14-1 (Camellia sinensis, UniProt A0A109P632)", "T1 construct": "gene UGT78A14; Ala438 allele", "T1 sequence (A0A109P632 entry or part of it)": "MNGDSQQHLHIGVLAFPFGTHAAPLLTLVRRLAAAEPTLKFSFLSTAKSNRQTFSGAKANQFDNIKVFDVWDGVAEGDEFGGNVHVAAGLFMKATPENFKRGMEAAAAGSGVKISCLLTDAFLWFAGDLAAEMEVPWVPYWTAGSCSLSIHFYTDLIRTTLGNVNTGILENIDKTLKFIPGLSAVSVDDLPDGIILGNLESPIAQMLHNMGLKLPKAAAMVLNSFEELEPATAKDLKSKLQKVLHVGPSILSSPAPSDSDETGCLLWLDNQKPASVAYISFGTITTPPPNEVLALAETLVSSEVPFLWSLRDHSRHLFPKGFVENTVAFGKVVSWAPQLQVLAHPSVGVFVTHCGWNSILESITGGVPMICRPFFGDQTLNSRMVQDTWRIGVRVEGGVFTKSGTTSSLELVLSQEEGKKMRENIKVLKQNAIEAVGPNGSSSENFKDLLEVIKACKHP", "experiment": "UDP-Glo glycosyltransferase assay, steady-state kinetics", "format": "biochemical", "settings": "co-substrate UDP-glucose (Glc row), donor fixed at 100 μM; acceptor varied 1-500 μM; optimized pH and temperature", "description": "UDP-Glo glycosyltransferase assay, steady-state kinetics on CsUGT78A14-1"}
{"smiles": "O=c1c(O)c(-c2ccc(O)cc2)oc2cc(O)cc(O)c12", "note": "[kaempferol]", "values": [{"measurement": "Km", "result": 27.1, "unit": "µM"}]}
